Test results: US20250129067A1 (Progentos Therapeutics, Inc., priority 2021, published 2025)
Values joined by “and” are separate entries in the source; they are usually repeats but may differ in a detail not shown here. Equal entries are not always repeated. Where two headings read alike, the source gives them in different places.

What was measured:
[1] = tested on: Oligodendrocyte progenitor cells (OPCs); experiment: In vitro OPC differentiation assay, GPR17 expression (immunocytochemistry); details: 72 hours; for GPR17 Fold Induction (Over Vehicle; 3 μM): 3 μM (10× concentration, final 0.3 μM)
[2] = tested on: GPR17+ cells (newly differentiated oligodendrocytes); experiment: In vivo OPC differentiation, GPR17+ cells in brain; details: for fold induction at 3.3 mg/kg / fold induction at 10 mg/kg / fold induction at 30 mg/kg / fold induction at 3 mg/kg: Mus musculus, po, 24 h, read-out: GPR17 Fold Induction (Over Vehicle); for GPR17 Fold Induction (Over Vehicle): dose not assignable from Table 10, GPR17+ cells in brain, mice
PDGFRα = PDGFRα (Homo sapiens (Human), UniProt P16234); experiment: PDGFRα kinase enzyme assay (Promega PDGFRα Kinase Enzyme System, ADP-Glo); format: biochemical; details: 150 uM ATP
How it was run: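 Purified PDGFRα protein (20 ng) reacted with test compound per the Promega kinase system protocol. ADP formed was measured by ADP-Glo luminescence against a standard curve, giving IC50.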

[3] = tested on: Oligodendrocyte progenitor cells (OPCs); experiment: In vitro OPC differentiation assay, MBP expression (immunocytochemistry)
Method: Cortices from postnatal day (P) 1-3 rats were dissected and collected into ice cold Hank's Balanced Salt Solution (HBSS). […] Briefly, the cortical cell suspension was centrifuged and washed with buffer (0.5% BSA in PBS) and labeled with Anti-A2B5 MicroBeads (10 μL beads per 1×10^7 cells) for 15 minutes at 4° C. Following the incubation, cells were washed once with BSA buffer to remove unlabeled beads. A2B^5 positive cells were eluted on the column using the AutoMACS® (Miltenyi, as per manufacturer's protocol using “possel-s” program). Eluted cells were further washed twice with OPC growth media. Cell count was performed using Countess III cell counter (ThermoFisher; AMQAX2000) and cells were plated.
A2B5+ OPCs were plated in poly-d-lysine (PDL) coated T75 flask at a density of ˜3 million cells per flask. […] TrypLE was normalized by adding 10 mL growth media and cells were centrifuged at 1400 rpm for 10 minutes. […] The plates were allowed to sit at room temperature for 15 minutes to ensure proper dispersion of cells in a well. The plates were then transferred to the incubator (37° C.; 5% CO2).
Cells were then incubated for 72 hours at 37° C., 5% CO2 before immunostaining for MBP marker expression.
Following 72 hours of treatment, cells were fixed with 4% paraformaldehyde for 15 minutes then washed three times in DPBS. Prior to staining, cells were blocked for 15 minutes in 10% normal goat serum containing 1% BSA and 0.1% Triton X-100 in DPBS. Primary antibody (MBP @ 1:2000; Abcam AB7349) was applied to cells overnight at 4° C. in incubation solution containing 1% normal goat serum, 1% BSA, and 0.1% Triton X-100 in DPBS.
The number of differentiated MBP+ cells was normalized to the total nuclei count and percent differentiated MBP+ cells were reported.

[4] = 5 μM (10× concentration, final 0.5 μM), fold change over vehicle
[5] = 11-point dose response, 10,000 nM to 0.169 nM, BLQ = below limit of quantitation, read-out: IC50 Values on PDGFRα Kinase Inhibition, IC50
[6] = 72 hours of treatment, fold change over vehicle
[7] = 20 ng purified PDGFRα, Poly (Glu4Tyr1) substrate, two hours, 11-point dose response, read-out: IC50 Values on PDGFRα Kinase Inhibition

PDGFRα, sequence (P16234 24-1089): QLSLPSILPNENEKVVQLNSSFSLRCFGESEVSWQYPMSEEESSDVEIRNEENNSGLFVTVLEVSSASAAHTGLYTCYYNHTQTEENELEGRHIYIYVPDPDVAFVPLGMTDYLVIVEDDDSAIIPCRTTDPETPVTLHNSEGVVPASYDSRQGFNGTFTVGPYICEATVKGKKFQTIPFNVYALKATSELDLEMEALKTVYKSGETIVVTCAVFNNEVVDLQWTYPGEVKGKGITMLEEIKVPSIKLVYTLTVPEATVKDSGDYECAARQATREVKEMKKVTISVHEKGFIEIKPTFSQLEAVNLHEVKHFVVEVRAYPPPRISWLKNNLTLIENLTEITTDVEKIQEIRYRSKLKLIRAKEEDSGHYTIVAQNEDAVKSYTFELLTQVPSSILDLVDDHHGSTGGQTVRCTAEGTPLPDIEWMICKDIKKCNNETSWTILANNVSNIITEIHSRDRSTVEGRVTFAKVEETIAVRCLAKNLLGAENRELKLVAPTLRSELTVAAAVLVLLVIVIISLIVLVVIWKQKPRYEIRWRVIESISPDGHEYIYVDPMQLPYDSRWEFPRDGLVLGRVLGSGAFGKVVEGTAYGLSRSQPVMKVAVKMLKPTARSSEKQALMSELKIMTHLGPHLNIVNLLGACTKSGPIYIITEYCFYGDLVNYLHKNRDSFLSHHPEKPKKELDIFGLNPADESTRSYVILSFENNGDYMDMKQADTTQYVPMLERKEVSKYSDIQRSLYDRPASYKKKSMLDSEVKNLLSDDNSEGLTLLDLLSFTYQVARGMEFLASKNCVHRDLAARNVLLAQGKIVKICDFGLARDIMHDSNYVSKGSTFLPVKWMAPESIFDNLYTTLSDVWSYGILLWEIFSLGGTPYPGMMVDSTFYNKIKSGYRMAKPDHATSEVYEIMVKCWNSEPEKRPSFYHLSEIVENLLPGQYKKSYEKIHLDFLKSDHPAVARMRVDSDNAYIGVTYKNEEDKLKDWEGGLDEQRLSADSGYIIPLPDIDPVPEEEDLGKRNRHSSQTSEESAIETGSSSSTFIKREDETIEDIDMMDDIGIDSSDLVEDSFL

Structure (SMILES): Cn1cc(-c2ccc3c(N4CCN(C(=O)CCc5ccccc5)CC4)cnn3c2)cn1 [Compound 1, 6-(1-methyl-1H-pyrazol-4-yl)-3-[4-(3-phenylpropanoyl)piperazin-1-yl]pyrazolo[1,5-a]pyridine]
- GPR17 Fold Induction (Over Vehicle; 3 μM) ([1]; fold change over vehicle): 5.25
- GPR17 Fold Induction (Over Vehicle; 5 μM) [1, 4]: 2.94
- fold induction at 3.3 mg/kg [2]: 1.06
- IC50 (PDGFRα; [5]): 4.01 µM
- MBP Fold Induction (Over vehicle) [3, 6]: 9.82

Structure (SMILES): Cn1cc(-c2ccc3c(N4CCN(C(=O)OCC(C)(C)C)CC4)cnn3c2)cn1 [Compound 3, 2,2-dimethylpropyl 4-[6-(1-methyl-1H-pyrazol-4-yl)pyrazolo[1,5-a]pyridin-3-yl]piperazine-1-carboxylate]
- GPR17 Fold Induction (Over Vehicle; 3 μM) ([1]; fold change over vehicle): 4.12
- GPR17 Fold Induction (Over Vehicle; 5 μM) [1, 4]: 3.69
- fold induction at 3.3 mg/kg [2]: 1.45
- IC50 (PDGFRα; [7]): < 1 µM
- IC50 (PDGFRα; [5]): 0.883 µM
- MBP Fold Induction (Over vehicle) [3, 6]: 1.56

Structure (SMILES): Cn1cc(-c2cnc3c(N4CCN(c5ncc(Cc6ccccc6)cn5)CC4)cnn3c2)cn1 [Compound 7, 3-[4-(5-benzylpyrimidin-2-yl)piperazin-1-yl]-6-(1-methyl-1H-pyrazol-4-yl)pyrazolo[1,5-a]pyrimidine]
- GPR17 Fold Induction (Over Vehicle; 3 μM) ([1]; fold change over vehicle): 7.38
- GPR17 Fold Induction (Over Vehicle; 5 μM) [1, 4]: 4.40 and 4.45
- fold induction at 10 mg/kg [2]: 12.9
- IC50 (PDGFRα; [5]): 2.42 µM
- MBP Fold Induction (Over vehicle) [3, 6]: 2.1

Structure (SMILES): Cn1cc(-c2ccc3c(N4CCN(C(=O)OC(C)(C)C)CC4)cnn3c2)cn1 [Compound 11, tert-butyl 4-[6-(1-methyl-1H-pyrazol-4-yl)pyrazolo[1,5-a]pyridin-3-yl]piperazine-1-carboxylate]
- GPR17 Fold Induction (Over Vehicle; 3 μM) ([1]; fold change over vehicle): 10.21
- GPR17 Fold Induction (Over Vehicle; 5 μM) [1, 4]: 4.22
- fold induction at 3.3 mg/kg [2]: 2.14
- fold induction at 10 mg/kg [2]: 9.93
- IC50 (PDGFRα; [7]): < 1 µM
- IC50 (PDGFRα; [5]): 0.326 µM
- MBP Fold Induction (Over vehicle) [3, 6]: 1.93

Structure (SMILES): Cn1cc(-c2ccc3c(N4CCN(C(=O)OCc5ccccc5)CC4)cnn3c2)cn1 [Compound 13, Benzyl 4-[6-(1-methyl-1H-pyrazol-4-yl)pyrazolo[1,5-a]pyridin-3-yl]piperazine-1-carboxylate]
- GPR17 Fold Induction (Over Vehicle; 3 μM) ([1]; fold change over vehicle): 8.42
- GPR17 Fold Induction (Over Vehicle; 5 μM) [1, 4]: 4.31
- fold induction at 3.3 mg/kg [2]: 1.85
- IC50 (PDGFRα; [7]): < 1 µM
- IC50 (PDGFRα; [5]): 0.421 µM
- MBP Fold Induction (Over vehicle) [3, 6]: 10.24

Structure (SMILES): Cn1cc(-c2ccn3c(N4CCN(c5ncc(Cc6ccccc6)cn5)CC4)cnc3c2)cn1 [Compound 23, 3-[4-(5-benzylpyrimidin-2-yl)piperazin-1-yl]-7-(1-methyl-1H-pyrazol-4-yl)imidazo[1,2-a]pyridine]
- GPR17 Fold Induction (Over Vehicle; 3 μM) ([1]; fold change over vehicle): 9.53
- GPR17 Fold Induction (Over Vehicle; 5 μM) [1, 4]: 3.98
- fold induction at 30 mg/kg [2]: 14.8
- IC50 (PDGFRα; [5]): 0.424 µM
- MBP Fold Induction (Over vehicle) [3, 6]: 2.1

Structure (SMILES): Cn1cc(-c2ccc3c(N4CCN(C(=O)OCCc5ccccc5)CC4)cnn3c2)cn1 [Compound 30, 2-phenylethyl-4-[6-(1-methyl-1H-pyrazol-4-yl)pyrazolo[1,5-a]pyridin-3-yl]piperazine-1-carboxylate]
- GPR17 Fold Induction (Over Vehicle; 3 μM) ([1]; fold change over vehicle): 6.05
- GPR17 Fold Induction (Over Vehicle; 5 μM) [1, 4]: 3.25
- fold induction at 3.3 mg/kg [2]: 9.91
- IC50 (PDGFRα; [5]): 0.999 µM
- MBP Fold Induction (Over vehicle) [3, 6]: 1.78

Structure (SMILES): Cn1cc(-c2ccc3c(N4CCN(c5ncc(C(C)(N)c6ccc(F)cc6)cn5)CC4)cnn3c2)cn1 (stereo not drawn) [Compound 35, 1-(4-fluorophenyl)-1-(2-{4-[6-(1-methyl-1H-pyrazol-4-yl)pyrazolo[1,5-a]pyridin-3-yl]piperazin-1-yl}pyrimidin-5-yl)ethanamine]
- GPR17 Fold Induction (Over Vehicle; 3 μM) ([1]; fold change over vehicle): 7.17
- GPR17 Fold Induction (Over Vehicle; 5 μM) [1, 4]: 3.57
- fold induction at 3.3 mg/kg [2]: 5.01
- IC50 (PDGFRα; [5]): 2.09 µM
- MBP Fold Induction (Over vehicle) [3, 6]: 1.69

Structure (SMILES): Cn1cc(-c2ccc3c(N4CCN(c5ncc(C(C)(O)c6ccc(F)cc6)cn5)CC4)cnn3c2)cn1 (stereo not drawn) [Compound 46, 1-(4-fluorophenyl)-1-(2-{4-[6-(1-methyl-1H-pyrazol-4-yl)pyrazolo[1,5-a]pyridin-3-yl]piperazin-1-yl}pyrimidin-5-yl)ethanol]
- GPR17 Fold Induction (Over Vehicle; 3 μM) ([1]; fold change over vehicle): 6.86
- GPR17 Fold Induction (Over Vehicle) [2]: 11.15 fold
- IC50 (PDGFRα; [5]): 0.122 µM
- MBP Fold Induction (Over vehicle) [3, 6]: 3.97

Structure (SMILES): C[C@@H](OC(=O)N1CCN(c2cnn3cc(-c4cnn(C)c4)ncc23)CC1)c1ccccc1 [Compound 49, (R)-1-phenylethyl 4-(6-(1-methyl-1H-pyrazol-4-yl)pyrazolo[1,5-a]pyrazin-3-yl)piperazine-1-carboxylate]
- GPR17 Fold Induction (Over Vehicle; 3 μM) ([1]; fold change over vehicle): 9.99
- GPR17 Fold Induction (Over Vehicle; 5 μM) [1, 4]: 4.42
- fold induction at 3.3 mg/kg [2]: 1.68
- IC50 (PDGFRα; [5]): 0.0595 µM
- MBP Fold Induction (Over vehicle) [3, 6]: 2.45

Structure (SMILES): Cc1cccc(Cc2cnc(N3CCN(c4cnn5cc(-c6cnn(C)c6)ccc45)CC3)nc2)c1 [Compound 53, 3-{4-[5-(3-methylbenzyl)pyrimidin-2-yl]piperazin-1-yl}-6-(1-methyl-1H-pyrazol-4-yl)pyrazolo[1,5-a]pyridine]
- GPR17 Fold Induction (Over Vehicle; 3 μM) ([1]; fold change over vehicle): 5.60
- fold induction at 3 mg/kg [2]: 1.22
- fold induction at 30 mg/kg [2]: 4.64
- GPR17 Fold Induction (Over Vehicle) [2]: 1.41 fold
- IC50 (PDGFRα; [5]): 0.249 µM
- MBP Fold Induction (Over vehicle) [3, 6]: 1.41

Structure (SMILES): COc1cccc(Cc2cnc(N3CCN(c4cnn5cc(-c6cnn(C)c6)ccc45)CC3)nc2)c1 [Compound 54, 3-{4-[5-(3-methoxybenzyl)pyrimidin-2-yl]piperazin-1-yl}-6-(1-methyl-1H-pyrazol-4-yl)pyrazolo[1,5-a]pyridine]
- GPR17 Fold Induction (Over Vehicle; 3 μM) ([1]; fold change over vehicle): 6.81
- fold induction at 3 mg/kg [2]: 1.24
- fold induction at 30 mg/kg [2]: 3.48
- IC50 (PDGFRα; [5]): 0.63 µM
- MBP Fold Induction (Over vehicle) [3, 6]: 2.14

Structure (SMILES): OCCn1cc(-c2ccc3c(N4CCN(c5ncc(Cc6ccccc6)cn5)CC4)cnn3c2)cn1 [Compound 55, 2-(4-{3-[4-(5-benzylpyrimidin-2-yl)piperazin-1-yl]pyrazolo[1,5-a]pyridin-6-yl}-1H-pyrazol-1-yl)ethanol]
- GPR17 Fold Induction (Over Vehicle; 3 μM) ([1]; fold change over vehicle): 8.97
- fold induction at 3 mg/kg [2]: 6.43
- IC50 (PDGFRα; [5]): 0.12 µM
- MBP Fold Induction (Over vehicle) [3, 6]: 5.64

Structure (SMILES): Cn1cc(-c2ccc3c(N4CCN(c5nc(Cc6ccccc6)co5)CC4)cnn3c2)cn1 [Compound 58, 3-[4-(4-benzyl-1,3-oxazol-2-yl)piperazin-1-yl]-6-(1-methyl-1H-pyrazol-4-yl)pyrazolo[1,5-a]pyridine]
- GPR17 Fold Induction (Over Vehicle; 3 μM) ([1]; fold change over vehicle): 7.31
- fold induction at 3 mg/kg [2]: 5.5
- IC50 (PDGFRα; [5]): 0.3 µM
- MBP Fold Induction (Over vehicle) [3, 6]: 3.72

Structure (SMILES): Cn1cc(-c2ccc3c(N4CCN(c5ncc(C(O)c6ccccn6)cn5)CC4)cnn3c2)cn1 (stereo not drawn) [Compound 59, (2-{4-[6-(1-methyl-1H-pyrazol-4-yl)pyrazolo[1,5-a]pyridin-3-yl]piperazin-1-yl}pyrimidin-5-yl) (pyridin-2-yl)methanol]
- GPR17 Fold Induction (Over Vehicle; 3 μM) ([1]; fold change over vehicle): 5.49
- fold induction at 3 mg/kg [2]: 10.6
- IC50 (PDGFRα; [5]): 0.168 µM
- MBP Fold Induction (Over vehicle) [3, 6]: 2.56

Structure (SMILES): Cn1cc(-c2ccc3c(N4CCN(c5ncc(C(O)C6CCCCC6)cn5)CC4)cnn3c2)cn1 (stereo not drawn) [Compound 61, cyclohexyl(2-{4-[6-(1-methyl-1H-pyrazol-4-yl)pyrazolo[1,5-a]pyridin-3-yl]piperazin-1-yl}pyrimidin-5-yl)methanol]
- GPR17 Fold Induction (Over Vehicle; 3 μM) ([1]; fold change over vehicle): 10.09
- fold induction at 3 mg/kg [2]: 2.36
- IC50 (PDGFRα; [5]): 0.00526 µM
- MBP Fold Induction (Over vehicle) [3, 6]: 9.88

Structure (SMILES): Cn1cc(-c2ccc3c(N4CCN(C(=O)O[C@@H](c5ccccc5)C(F)(F)F)CC4)cnn3c2)cn1 [Compound 64, (1S)-2,2,2-trifluoro-1-phenylethyl 4-[6-(1-methyl-1H-pyrazol-4-yl)pyrazolo[1,5-a]pyridin-3-yl]piperazine-1-carboxylate]
- GPR17 Fold Induction (Over Vehicle; 3 μM) ([1]; fold change over vehicle): 6.09
- fold induction at 3 mg/kg [2]: 2.13
- IC50 (PDGFRα; [5]): 0.0384 µM
- MBP Fold Induction (Over vehicle) [3, 6]: 7.73

Structure (SMILES): Cn1cc(-c2ccc3c(N4CCN(c5ncc(Cc6ccc(F)cc6)cn5)CC4)cnn3c2)cn1 [Compound 66, 3-{4-[5-(4-fluorobenzyl)pyrimidin-2-yl]piperazin-1-yl}-6-(1-methyl-1H-pyrazol-4-yl)pyrazolo[1,5-a]pyridine]
- GPR17 Fold Induction (Over Vehicle; 3 μM) ([1]; fold change over vehicle): 5.07
- fold induction at 3 mg/kg [2]: 10.4
- IC50 (PDGFRα; [5]): 0.693 µM
- MBP Fold Induction (Over vehicle) [3, 6]: 26.50

Structure (SMILES): CC[C@@H](OC(=O)N1CCN(c2cnn3cc(-c4cnn(C)c4)ccc23)CC1)c1ccccc1 [Compound 80, (1R)-1-(Phenyl)propyl 4-[6-(1-methyl-1H-pyrazol-4-yl)pyrazolo[1,5-a]pyridin-3-yl]piperazine-1-carboxylate]
- GPR17 Fold Induction (Over Vehicle; 3 μM) ([1]; fold change over vehicle): 8.19
- fold induction at 3 mg/kg [2]: 1.64
- IC50 (PDGFRα; [5]): 0.329 µM
- MBP Fold Induction (Over vehicle) [3, 6]: 7.89

Structure (SMILES): CCC(CC)Cc1cnc(N2CCN(c3cnn4cc(-c5cnn(C)c5)ccc34)CC2)nc1 [Compound 153, 3-(4-(5-(2-ethylbutyl)pyrimidin-2-yl)piperazin-1-yl)-6-(1-methyl-1H-pyrazol-4-yl)pyrazolo[1,5-a]pyridine]
- GPR17 Fold Induction (Over Vehicle; 3 μM) ([1]; fold change over vehicle): 6.37
- fold induction at 3 mg/kg [2]: 1.58
- IC50 (PDGFRα; [5]): 1.37 µM
- MBP Fold Induction (Over vehicle) [3, 6]: 4.86

Structure (SMILES): CN(C[C@@H]1COCCO1)S(=O)(=O)Nc1ccc2ccc3ncc(-c4cnn(C)c4)cc3c(=O)c2c1 [MK 2461, reference compound]
- GPR17 Fold Induction (Over Vehicle; 5 μM) ([1]; primary rat OPCs, 5 μM (10x; final 0.5 μM per method), percent GPR17+ cells as fold change over vehicle): 7.10
- IC50 (PDGFRα; [7]): 0.0108 µM
- MBP Fold Induction (Over vehicle) ([3]; primary rat OPCs, 72 hours, 3 uM (10x; final 0.3 uM per method), percent MBP+ cells as fold change over vehicle): 6.11
